From patent publication US11166954B2, “Dihydropyrimidine compound and preparation method and use thereof” (SICHUAN KELUN-BIOTECH BIOPHARMACEUTICAL CO., LTD., priority 2016, dated 2021)
Read-outs that look alike come from different tables or passages of the source.

What was measured:
[1] = system: hepatitis type B virus (HBV); test: Inhibition of HBV DNA replication in HepG2.2.15 cells; assay type: cell-based
Protocol: The inhibitory effect of the compounds of the present invention on hepatitis type B virus (HBV) was tested. Cytotoxicity and effects on nucleic acid (DNA) replication level of the virus (HBV) of the compounds of the present invention were tested at a virus-cell level.
HepG2.2.15 cells in the logarithmic growth phase were plated in a 96-well plate at a cell concentration of 40 cells per μL. The cells were incubated in a 5% CO2 incubator at 37° C. for 3 days; and the culture medium was replaced with a new one ([…]) before adding compounds. The concentration of the stock solution of each Example compound is 200 μM.

[2] = molecular target: T1, hERG potassium ion channel (Homo sapiens, UniProt Q12809); test: Predictor hERG Fluorescence Polarization Assay; assay type: binding; conditions: hERG fluorescence polarization
T1 construct: purchased
Excerpt: In cardiac muscle cells, hERG (human Ether-a-go-go Related Gene) coded potassium channel mediates delayed rectifier potassium currents (IKr). IKr inhibition is the most important mechanism of QT interval prolongation caused by a drug.
Employing the Predictor™ hERG Fluorescence Polarization Assay, the effect of the compounds on a hERG potassium ion channel was detected.

HepG2.2.15 cells = test: Cytotoxicity detection (CellTiter-Glo); assay type: cell-based; conditions: 4 days, highest concentration 150 μM
Protocol: (§1) The test compounds were diluted to 30 mM with DMSO, with 30 mM as the highest concentration, the compounds were subjected to three-fold serial dilution to various concentrations. 0.2 μL of the compounds at various concentrations were added to a 384-well plate, HepG2.2.15 cells having a concentration of 2000 cells per 50 μL were added to each well, and the highest concentration of the test compounds was 150 μM. 1 μL of DMSO was added to corresponding wells for control. The plate was incubated in a 5% CO2 incubator at 37° C. for 4 days; and 50 μL of CellTiter-Glo was added to each well after 4 days. The plate was read for detection, and a half cytotoxic concentration (CC50) was calculated.

[3] = In vivo pharmacokinetics (PK) in rats; conditions: male, SD, rat; for Kp: liver/plasma, 2 mg/kg
Protocol: (§2) The test compounds were administrated to male SD rats by intravenous (iv) and by gavage (po), respectively, the doses of the iv and po administration were respectively 1 mg/kg and 2 mg/kg, the solvent system for iv administration was 5% DMSO:5% solutol:90% physiological saline, and the solvent system for po administration was 0.5% MC. Blood was collected at multiple time points after iv administration and po administration for the PK study. Plasma samples and liver tissue samples were subjected to protein precipitation, followed by LC-MS/MS analysis. The mass spectrometer was API 5500, and the liquid chromatograph is a Waters ACQUITY I CLASS system; the chromatographic column was an Agela ASB C18 column (2.1 mm×50 mm, 1.9 μm); mobile phase A was water+0.1% formic acid, and phase B was acetonitrile; the flow rate was 0.4 mL/min, and the column temperature was 40° C. The ion source was an ESI source in a positive ion mode, and the scanning manner is multiple reaction monitoring (MRM).

[4] = Cytotoxicity detection (CellTiter-Glo); assay type: cell-based; conditions: human, HepG2.2.15 cells, highest concentration 150 μM
Protocol: as §1

hepatitis B virus = test: Mouse HBV model via tail vein hydrodynamic injection (HDI); assay type: in vivo, female BALB/c mice
Protocol: The in vivo inhibitory effect on hepatitis B virus of the compound of the present invention was evaluated by employing a mouse HBV model via tail vein hydrodynamic injection (HDI).
A suspension of compound 10-227 of the present invention was prepared with a 0.5% MC solution as the solvent. Female BALB/c mice were injected with pAAV2-HBV 1.3mer (type D) plasmid DNA via tail vein hydrodynamic injection, and then divided into the control group, test group 1 and test group 2 (5 mice in each group). Oral gavage administration was initiated one day later. The control group was given the 0.5% MC solution each time. The test groups 1 and 2 each time were given compound 10-227 (in the form of the suspension prepared above) at a dosage of 1 mg/kg and 3 mg/kg, respectively. The administration was continued for 7 days, twice a day, at an administration interval of 10 hours or 14 hours. Mouse plasma was collected at different time points (e.g., 1 day, 3 days, 5 days or 7 days after the HDI), and the HBV DNA levels in the plasma samples were detected by the RT-qPCR method.
In addition, throughout the entire in vivo test, the weight and body condition of the mice were measured and observed everyday according to an IACUC (Institutional Animal Care and Use Committee) protocol.

[5] = In vivo pharmacokinetics (PK) in Beagle dogs; design: species or system male Beagle dogs; conditions: Beagle dog
Protocol: as §2, with “male Beagle dogs” for “male SD rats”, “respectively 0.5” for “respectively 1”, “and 2.5” for “and 2”, “samples” for “samples and liver tissue samples”, “chromatograph was” for “chromatograph is”

CYP450 isoform 3A4 = test: CYP3A4 induction test (HepG2 C3A/pCYP3A4-Luc, C8 cells, luciferase); assay type: cell-based; conditions: at a concentration of 10 μM
Protocol: (§3) A test tube of HepG2 C3A/pCYP3A4-Luc, C8 cells was taken out of a liquid nitrogen tank, the cells were recovered in a sterile water bath at 37° C.; and the test tube was gently shaken until ice completely melted. The recovered cells were transferred to a 15 mL sterile centrifuge tube, and 5-10 mL pre-heated basal cell culture medium at 37° C. was added; the cells were naturally settled for 2 minutes and centrifuged (1000 rpm) for 8 minutes. The supernatant was discarded, and the cells were re-suspended with 10 mL pre-heated cell culture medium. The cell suspension was transferred to a 10 cm cell-culture dish and incubated in a 5% CO2 incubator at 37° C. The original cell culture medium was replaced with a selective cell culture medium after 24 hours. The cells were digested after growing in 80%-90% of the culture dish, and then transferred to a 15 mL sterile centrifuge tube. Centrifugation was performed at 1000 rpm for 8 minutes, and the cells were collected. The supernatant was discarded, and the cells were re-suspended with 3 mL pre-heated complete medium. […] The supernatant was discarded, the cells were re-suspended and counted, and the suspension was diluted to 4×10^5 cells per mL. […] The fluorescence signal was measured on a plate reader. A concentration curve of the tested compounds was plotted by using software Prism 5, and the EC50 values were calculated.

CYP3A4 = test: as above; assay type: cell-based; conditions: human, HepG2 C3A/pCYP3A4-Luc, C8 cells; CYP3A4 induction, 72 hours
Protocol: as §3

[6] = In vivo pharmacokinetics (PK) in cynomolgus macaques; design: species or system male cynomolgus macaques; conditions: cynomolgus macaque
Protocol: as §2, with “male cynomolgus macaques” for “male SD rats”, “respectively 0.5” for “respectively 1”, “and 2.5” for “and 2”, “samples” for “samples and liver tissue samples”, “5500,” for “5500, and”, “chromatograph was” for “chromatograph is”

[7] = HepG2.2.15, HBV DNA replication
[8] = male, 0.5 mg/kg, iv, 0.50 mg/kg, plasma
[9] = male, 2.5 mg/kg, po, 2.50 mg/kg, plasma
[10] = male, cynomolgus monkey, 0.5 mg/kg, iv, 0.50 mg/kg, plasma
[11] = male, cynomolgus monkey, 2.5 mg/kg, po, 2.50 mg/kg, plasma

T1 sequence (Q12809 whole entry): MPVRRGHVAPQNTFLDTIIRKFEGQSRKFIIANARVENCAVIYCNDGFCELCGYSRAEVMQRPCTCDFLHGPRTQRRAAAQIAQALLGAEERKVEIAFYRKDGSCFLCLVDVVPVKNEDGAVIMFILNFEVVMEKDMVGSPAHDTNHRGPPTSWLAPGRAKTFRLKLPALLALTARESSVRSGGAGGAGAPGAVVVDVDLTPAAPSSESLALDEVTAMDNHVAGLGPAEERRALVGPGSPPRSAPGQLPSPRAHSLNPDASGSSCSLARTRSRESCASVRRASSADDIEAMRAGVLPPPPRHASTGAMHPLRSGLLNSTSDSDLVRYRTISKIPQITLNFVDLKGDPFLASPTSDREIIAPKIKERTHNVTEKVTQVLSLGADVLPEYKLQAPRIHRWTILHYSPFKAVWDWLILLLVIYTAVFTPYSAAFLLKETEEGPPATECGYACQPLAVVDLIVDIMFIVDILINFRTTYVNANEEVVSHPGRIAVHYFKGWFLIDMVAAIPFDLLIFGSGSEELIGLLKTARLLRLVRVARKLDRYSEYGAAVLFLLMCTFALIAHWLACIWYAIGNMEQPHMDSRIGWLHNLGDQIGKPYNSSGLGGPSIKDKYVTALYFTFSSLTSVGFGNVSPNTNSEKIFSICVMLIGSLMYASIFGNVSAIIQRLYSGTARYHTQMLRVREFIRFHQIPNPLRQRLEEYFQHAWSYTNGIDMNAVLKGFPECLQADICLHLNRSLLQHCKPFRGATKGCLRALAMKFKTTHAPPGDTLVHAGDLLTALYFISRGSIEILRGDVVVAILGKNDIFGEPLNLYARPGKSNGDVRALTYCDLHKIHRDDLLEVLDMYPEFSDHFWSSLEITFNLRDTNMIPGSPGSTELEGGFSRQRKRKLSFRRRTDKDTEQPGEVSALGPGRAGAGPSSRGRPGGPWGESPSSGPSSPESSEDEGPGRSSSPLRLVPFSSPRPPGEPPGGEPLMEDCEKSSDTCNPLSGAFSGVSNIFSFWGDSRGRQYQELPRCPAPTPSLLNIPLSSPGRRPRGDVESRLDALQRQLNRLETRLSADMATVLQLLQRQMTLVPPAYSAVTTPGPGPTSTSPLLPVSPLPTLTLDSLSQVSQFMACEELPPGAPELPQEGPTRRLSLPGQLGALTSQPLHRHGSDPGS

CCOC(=O)C1=C(CN2CCC(O)C(F)(F)C2)NC(c2nccs2)=N[C@H]1c1ccc(F)cc1Cl (single isomer, unassigned) [Isomer A of Example 4]
EC50 ([1]; HBV DNA replication): 0.0351 µM | IC50 [2]: > 10 µM | CC50 (HepG2.2.15 cells): 43.9 µM

CCOC(=O)C1=C(CN2CCO[C@H](/C=C/C(=O)O)C2)NC(c2nccs2)=N[C@H]1c1ccc(F)cc1Cl [10-226 of Example 25, (E)-3-((R)-4-(((R)-6-(2-chloro-4-fluorophenyl)-5-(ethoxycarbonyl)-2-(thiazol-2-yl)-3,6-dihydropyrimidin-4-yl)methyl)morpholin-2-yl)acrylic Acid]
bioavailability ([3]; plasma, po, by gavage, 2.00 mg/kg, read-out: bioavailability (F)): 47.6% | AUC(0-inf) ([3]; iv, 1.00 mg/kg, plasma): 2400 ng·h/mL | Cmax ([3]; iv, 1.00 mg/kg, plasma): 2890 ng/mL | AUC(0-inf) ([3]; po, 2.00 mg/kg, liver): 3030 ng·h/mL | Cmax ([3]; po, 2.00 mg/kg, liver): 1690 ng/mL | AUC(0-inf) ([3]; po, 2.00 mg/kg, plasma): 2290 ng·h/mL | Cmax ([3]; po, 2.00 mg/kg, plasma): 2180 ng/mL | EC50 [1, 7]: 0.0092 µM | IC50 [2]: > 10 µM | CC50 at 4 days [4]: > 150 µM

COC(=O)C1=C(CN2CCO[C@H](/C=C/C(=O)O)C2)NC(c2nccs2)=N[C@H]1c1ccc(F)cc1Cl [10-227 of Example 27, (E)-3-((R)-4-(((R)-6-(2-chloro-4-fluorophenyl)-5-(methoxycarbonyl)-2-(thiazol-2-yl)-3,6-dihydropyrimidin-4-yl)methyl)morpholin-2-yl)acrylic Acid]
EC50 [1, 7]: 0.01 µM | IC50 [2]: > 10 µM | CC50 at 4 days [4]: > 150 µM | HBV DNA level in plasma (hepatitis B virus; Test group 1, 1 mg/kg oral gavage twice a day, 1 day after HDI): 1.95 ± 0.09 log (HBV DNA copies/μl) | HBV DNA level in plasma (hepatitis B virus; Test group 1, 1 mg/kg oral gavage twice a day, 3 days after HDI): 2.28 ± 0.17 log (HBV DNA copies/μl) | HBV DNA level in plasma (hepatitis B virus; Test group 1, 1 mg/kg oral gavage twice a day, 5 days after HDI): 2.77 ± 0.11 log (HBV DNA copies/μl) | HBV DNA level in plasma (hepatitis B virus; Test group 1, 1 mg/kg oral gavage twice a day, 7 days after HDI): 2.77 ± 0.14 log (HBV DNA copies/μl) | HBV DNA level in plasma (hepatitis B virus; Test group 2, 3 mg/kg oral gavage twice a day, 1 day after HDI): 1.99 ± 0.09 log (HBV DNA copies/μl) | HBV DNA level in plasma (hepatitis B virus; Test group 2, 3 mg/kg oral gavage twice a day, 3 days after HDI): 1.95 ± 0.15 log (HBV DNA copies/μl) | HBV DNA level in plasma (hepatitis B virus; Test group 2, 3 mg/kg oral gavage twice a day, 5 days after HDI): 1.57 ± 0.08 log (HBV DNA copies/μl) | HBV DNA level in plasma (hepatitis B virus; Test group 2, 3 mg/kg oral gavage twice a day, 7 days after HDI): 1.42 ± 0.31 log (HBV DNA copies/μl) | variation in body weight (hepatitis B virus; mice, during 7 days of administration, 1 and 3 mg/kg): < 10% | amount of exposure in plasma relative to control compound 3 ([5]; by gavage, 2.50 mg/kg): about 14 times | blood-drug concentration relative to control compound 3 ([5]; by gavage, 2.50 mg/kg): about 6 times | AUC(0-inf) [5, 8]: 8750 ng·h/mL | AUC(0-t) [5, 8]: 8690 ng·h/mL | Cmax [5, 8]: 2310 ng/mL | AUC(0-inf) [5, 9]: 33200 ng·h/mL | AUC(0-t) [5, 9]: 32900 ng·h/mL | Cmax [5, 9]: 7200 ng/mL | bioavailability ([5]; male, plasma, po, 2.5 mg/kg, by gavage, 2.50 mg/kg, read-out: bioavailability (F)): 75.9% | inductive effect on CYP450 isoform 3A4 relative to rifampicin (CYP450 isoform 3A4): about 29% | EC50 at 72 h (CYP3A4): 123 µM | amount of exposure in plasma relative to control compound 3 ([6]; by gavage, 2.50 mg/kg): about 21 times | blood-drug concentration relative to control compound 3 ([6]; by gavage, 2.50 mg/kg): about 33 times | AUC(0-inf) [6, 10]: 2460 ng·h/mL | AUC(0-t) [6, 10]: 2440 ng·h/mL | Cmax [6, 10]: 1670 ng/mL | AUC(0-inf) [6, 11]: 4570 ng·h/mL | AUC(0-t) [6, 11]: 4420 ng·h/mL | Cmax [6, 11]: 1070 ng/mL | bioavailability ([6]; male, cynomolgus monkey, plasma, po, 2.5 mg/kg, by gavage, 2.50 mg/kg, read-out: bioavailability (F)): 37.2%

CCOC(=O)C1=C(CN2C[C@@H](/C=C/C(=O)O)CC(F)(F)C2)NC(c2nccs2)=N[C@H]1c1ccc(F)cc1Cl [10-230 of Example 26, (E)-3-((R)-1-(((R)-6-(2-chloro-4-fluorophenyl)-5-(ethoxycarbonyl)-2-(thiazol-2-yl)-3,6-dihydropyrimidin-4-yl)methyl)-5,5-difluoropiperidin-3-yl)acrylic Acid]
Kp ([3]; po, po, 2.00 mg/kg, AUCINF liver/plasma, read-out: amount of exposure in liver relative to that in plasma): ~10 | Kp ([3]; po, po, 2.00 mg/kg, Cmax liver/plasma, read-out: blood-drug concentration in liver relative to that in plasma): ~10 | AUC(0-inf) ([3]; po, 2.00 mg/kg, liver): 2340 ng·h/mL | Cmax ([3]; po, 2.00 mg/kg, liver): 1520 ng/mL | AUC(0-inf) ([3]; po, 2.00 mg/kg, plasma): 236 ng·h/mL | Cmax ([3]; po, 2.00 mg/kg, plasma): 179 ng/mL | EC50 [1, 7]: 0.0112 µM | IC50 [2]: > 10 µM | CC50 at 4 days [4]: 137 µM
